Values belong to the compound of their own block, whether it stands above or below them.
What was measured:
Assay type in all cases: cell-based
[1] = system: mouse sperm; assay: Percentages of X-sperm and Y-sperm in floating mouse sperm by real-time PCR; conditions: 0.3 μM treatment group
Method: Mouse sperm were incubated in a medium prepared by adding albumin and a TLR7 ligand to an embryo culture medium (HTF) at 37° C., 5% CO2 for 1 hour. The TLR7 ligand used was Resiquimod R-848 (hereinafter referred to as R-848). The content of R-848 was 0 μM, 0.003 μM, 0.03 μM, 0.3 μM, 1.5 μM, or 3 μM. The sperm floating in the upper layer were collected, and DNA was extracted. Then, the percentages of X chromosome-bearing sperm (hereinafter referred to as X-sperm) and Y chromosome-bearing sperm (hereinafter referred to as Y-sperm) were determined by real-time PCR (polymerase chain reaction).

[2] = system: mouse sperm; assay: Mouse in vitro fertilization with washed floating sperm; XX/XY chromosomes of embryos; conditions: floating sperm from 0.3 μM treatment group
Method: The floating sperm in the non-treatment group and 0.3 μM treatment group were washed, and then subjected to in vitro fertilization. The percentage of in vitro fertilization embryo bearing XX chromosomes or XY chromosomes was determined.

[3] = system: bovine sperm; assay: Percentages of X-sperm and Y-sperm in floating bovine sperm by real-time PCR
Method: A frozen bovine semen provided by the Oita Prefectural Agriculture, Forestry and Fisheries Research Center was used. The frozen sperm were melted, and washed with an albumin-free HTF medium. The bovine sperm were incubated in a medium prepared by adding albumin and a TLR7 ligand to HTF at 37° C., 5% CO2 for 1 hour. The TLR7 ligand used was R-848 or imiquimod R-837 (hereinafter referred to as R-837). The content of R-848 was 0 μM, 0.003 μM, 0.03 μM, 0.3 μM, or 3 μM. The content of R-837 was 0.003 μM, 0.03 μM, 0.3 μM, 3 μM, 30 μM, or 300 μM. Then, after collecting the floating sperm in the upper layer and extracting DNA, the percentages of X-sperm and Y-sperm were determined by real-time PCR.

[4] = system: bovine sperm; assay: Bovine in vitro fertilization with upper layer sperm; fertilization, blastocyst rate and sexing by real-time PCR; conditions: bovine IVF, upper layer sperm from 0.03 μM R-848 treatment group
Method: Bovine in vitro fertilization was performed using the sperm in the upper layer rich in Y-sperm from the 0.03 μM R-848 treatment group. […] Next, sexing of the blastocyst embryos was performed by real-time PCR.

[5] = system: pig sperm; assay: Percentages of X-sperm and Y-sperm in floating pig sperm by real-time PCR; conditions: R-848 0.3 μM, 2 hours
Method: Pig sperm were incubated in a medium prepared by adding cysteine, glycine, and a TLR7 ligand to the Modena solution at 37° C., 5% CO2, 5% O2 for 2 hours. The TLR7 ligand used was R-848. The content of R-848 was 0 μM or 0.3 μM. After collecting the floating sperm in the upper layer and extracting DNA, the percentages of X-sperm and Y-sperm were determined by real-time PCR.

[6] = system: mouse sperm; assay: Separation of mouse sperm by hypergravity load (centrifugation) after TLR7 ligand incubation; X-/Y-sperm percentages in upper and lower layer; conditions: R-848 0.3 μM; for percentage of X-sperm in the lower layer of the medium: 30% of the lower layer; for percentage of Y-sperm in the upper layer of the medium: 30% of the upper layer
Method: Mouse sperm were incubated in a medium (500 μL) prepared by adding albumin and a TLR7 ligand to an embryo culture medium (HTF) at 37° C., 5% CO2 for 1 hour. The TLR7 ligand used was Resiquimod R-848 (hereinafter referred to as R-848). The content of R-848 was 0.3 μM. After 30 minutes, the media were centrifuged using a centrifuge (product name: Tabletop Micro Refrigerated Centrifuge Model 3520, produced by KUBOTA Corporation Co., Ltd.) at 37° C. for 30 minutes. The centrifugation was at a centrifugal force of 50×g, 100×g, or 500×g. For comparison, a system without centrifugation (0×g) was also prepared. After centrifugation, 150 μL of the upper layer (30% of the upper layer) of each of the media was collected, and the percentages of X-sperm and Y-sperm in each of the media were determined in the same manner as described above. In addition, 150 μL of the lower layer (30% of the lower layer) of each of the media was collected, and the percentages of X-sperm and Y-sperm in each of the media were determined in the same manner as described above.

[7] = system: mouse sperm; assay: Mouse in vitro fertilization with upper and lower layer sperm separated at 50×g; 2-cell, blastocyst embryo, XX/XY chromosomes; conditions: for 2-cell (%), (number of 2-cell/number of eggs)×100 / Blastocyst embryo (%), (number of blastocyst embryos/number of 2-cell)×100 / Blastocyst embryo (number) / XX chromosomes (%) of blastocyst embryos / XX chromosomes (number) of blastocyst embryos / XY chromosomes (%) of blastocyst embryos / XY chromosomes (number) of blastocyst embryos / 2-cell (number), observed cleavages in 24 hours: R-848 0.3 μM, 50×g
Method: Then, the percentages of blastocyst embryos bearing XX chromosomes or XY chromosomes were determined. In addition, a sperm population obtained by incubating in the same medium as described above at 37° C. for 60 minutes without addition of the TLR7 ligand and without centrifugation (non-treatment group) was subjected to in vitro fertilization in the same manner as described above to form a blastocyst embryo. Then, the percentages of blastocyst embryos bearing XX chromosomes or XY chromosomes were determined. In the column “2-cell” in Table 3, “number” represents number of observed cleavages in 24 hours, while “%” represents “(number of 2-cell/number of eggs)×100.” In the column “blastocyst embryo,” “number” represents number of formed blastocyst embryos, while “%” represents “(number of blastocyst embryos/number of 2-cell)×100.”

[8] = centrifugation at 100×g or more

effect on the fertilization function of the sperm ([7]; centrifugation on sperm incubated in medium supplemented with TLR7 ligand (R-848 0.3 μM, 50×g) vs non-treatment group): no effect
SMILES: CCOCc1nc2c(N)nc3ccccc3c2n1CC(C)(C)O [R-848, resiquimod]
percentage of Y-sperm in floating sperm [1]: ≥ 80%
XX chromosomes (%) of in vitro fertilization embryos [2]: 13%
XX chromosomes (Number) of in vitro fertilization embryos ([2]; 98 embryos tested): 13
XY chromosomes (Number) of in vitro fertilization embryos ([2]; 98 embryos tested): 85
percentage of Y-sperm in floating sperm ([3]; R-848 0.03 to 0.3 μM treatment groups): ≥ 90%
blastocyst embryo transfer rate [4]: 64.3%
fertilization rate [4]: 71.7%
male embryos (sexing of blastocyst embryos by real-time PCR) [4]: 87.8%
percentage of Y-sperm in floating sperm [5]: ≥ 90%
percentage of X-sperm in the lower layer of the medium ([6]; 0×g (without centrifugation)): exceeding 60%
percentage of Y-sperm in the upper layer of the medium ([6]; 0×g (without centrifugation)): exceeding 80%
percentage of X-sperm in the lower layer of the medium [6, 8]: below 50%
percentage of Y-sperm in the upper layer of the medium [6, 8]: about 60%
2-cell (%), (number of 2-cell/number of eggs)×100 ([7]; lower layer group): 70%
Blastocyst embryo (%), (number of blastocyst embryos/number of 2-cell)×100 ([7]; lower layer group): 70%
Blastocyst embryo (number) ([7]; lower layer group): 48
XX chromosomes (%) of blastocyst embryos ([7]; lower layer group): 81%
XX chromosomes (number) of blastocyst embryos ([7]; lower layer group): 39
XY chromosomes (%) of blastocyst embryos ([7]; lower layer group): 19%
XY chromosomes (number) of blastocyst embryos ([7]; lower layer group): 9
2-cell (number), observed cleavages in 24 hours ([7]; lower layer group, 99 eggs): 69
2-cell (%), (number of 2-cell/number of eggs)×100 ([7]; upper layer group): 79%
Blastocyst embryo (%), (number of blastocyst embryos/number of 2-cell)×100 ([7]; upper layer group): 73%
Blastocyst embryo (number) ([7]; upper layer group): 59
XX chromosomes (%) of blastocyst embryos ([7]; upper layer group): 10%
XX chromosomes (number) of blastocyst embryos ([7]; upper layer group): 6
XY chromosomes (%) of blastocyst embryos ([7]; upper layer group): 90%
XY chromosomes (number) of blastocyst embryos ([7]; upper layer group): 53
2-cell (number), observed cleavages in 24 hours ([7]; upper layer group, 103 eggs): 81

SMILES: CC(C)Cn1cnc2c(N)nc3ccccc3c21 [R-837, imiquimod]
percentage of Y-sperm in floating sperm ([3]; R-837 0.03 to 30 μM treatment groups): ≥ 70%
